We go through 20 compounds from patent US9193736B2, “PDE 10a inhibitors for the treatment of type II diabetes” (Janssen Pharmaceutica, NV, priority 2013, dated 2015).

The target of test [1] is Rat recombinant PDE10a (rPDE10a) (Rattus norvegicus (Rat), UniProt Q9QYJ6). Kind of test: In vitro assay PDE10a: rat recombinant PDE10a SPA with 3H-cAMP substrate, IC50. Format: biochemical. The note with it: 60 nM cAMP, read-out: rPDE10a2 IC50. As to the method: In Vitro Assay PDE10a Rat recombinant PDE10a (rPDE10a) was expressed in Sf9 cells using a recombinant rPDE10a baculovirus construct. Cells were harvested after 48 h of infection and the rPDE10a protein was purified by metal chelate chromatography on Ni-sepharose 6FF. Tested compounds were dissolved and diluted in 100% DMSO to a concentration 100 fold of the final concentration in the assay. […] The reaction was incubated for 60 min at rt. After incubation, the reaction was stopped with 20 μL of 17.8 mg/mL PDE SPA beads. […] For blank values the enzyme was omitted from the reaction and replaced by incubation buffer.
Sequence of Rat recombinant PDE10a (rPDE10a) (Q9QYJ6 whole entry): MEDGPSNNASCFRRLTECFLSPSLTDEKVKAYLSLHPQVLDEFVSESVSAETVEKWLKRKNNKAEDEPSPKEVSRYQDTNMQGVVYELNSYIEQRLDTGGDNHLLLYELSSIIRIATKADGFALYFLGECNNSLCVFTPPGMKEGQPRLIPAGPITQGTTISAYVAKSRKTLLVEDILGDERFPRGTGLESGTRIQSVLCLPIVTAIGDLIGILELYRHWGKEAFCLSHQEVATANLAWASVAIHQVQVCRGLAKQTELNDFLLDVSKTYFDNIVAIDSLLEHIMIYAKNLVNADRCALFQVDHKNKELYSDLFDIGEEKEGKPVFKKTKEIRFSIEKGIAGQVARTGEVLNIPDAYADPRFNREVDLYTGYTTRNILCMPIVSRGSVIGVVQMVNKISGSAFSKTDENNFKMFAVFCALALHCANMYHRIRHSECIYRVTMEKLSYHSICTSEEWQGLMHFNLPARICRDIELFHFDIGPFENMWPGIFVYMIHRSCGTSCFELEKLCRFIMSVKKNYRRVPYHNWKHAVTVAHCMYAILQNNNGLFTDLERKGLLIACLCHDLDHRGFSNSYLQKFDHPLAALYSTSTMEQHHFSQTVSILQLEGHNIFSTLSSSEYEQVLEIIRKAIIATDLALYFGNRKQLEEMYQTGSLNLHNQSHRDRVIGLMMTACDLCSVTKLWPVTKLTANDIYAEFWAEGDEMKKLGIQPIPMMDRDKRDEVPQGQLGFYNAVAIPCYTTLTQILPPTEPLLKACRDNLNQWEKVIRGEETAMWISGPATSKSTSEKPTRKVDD

The target in test [2] is Human recombinant PDE10A2 (Homo sapiens (Human), UniProt Q9Y233). Kind of test: In vitro hPDE10a: human recombinant PDE10A2 scintillation proximity assay, IC50. In kind it is biochemical. The settings on record: human recombinant PDE10A2, SPA, 60 nM cAMP; read-out: hPDE10a2 IC50. As to the method:
Cells were harvested and the phosphodiesterase protein was purified by metal chelate chromatography on Ni-sepharose 6FF. The affinity of the compounds of Formula (I) for phophodiesterases (PDE) was measured by a scintillation proximity assay (SPA). PDE Yttrium Silicate SPA beads allow PDE activity to be measured by direct binding of the primary phosphate groups of non-cyclic AMP or GMP to the beads via a complex iron chelation mechanism. The amount of bound tritiated product ([^3H]-AMP) is measured by liquid scintillation counting. The compounds were dissolved and diluted in 100% DMSO in polystyrene plates to a concentration of 100-fold the final concentration in the assay. […] After incubation, the reaction was stopped with 20 μL of stop solution, consisting of PDE SPA beads (17.8 mg beads/mL in 18 mM zinc sulphate). […] To measure the low control, no enzyme was added to the reaction mixture. Data were calculated as the percentage of inhibition of total activity measured in the absence of test compound (% control). […] For compounds tested more than once, the data points were aggregated.

Counter-ions that a name gives are not always drawn.

Sequence of Human recombinant PDE10A2 (Q9Y233 267-1055): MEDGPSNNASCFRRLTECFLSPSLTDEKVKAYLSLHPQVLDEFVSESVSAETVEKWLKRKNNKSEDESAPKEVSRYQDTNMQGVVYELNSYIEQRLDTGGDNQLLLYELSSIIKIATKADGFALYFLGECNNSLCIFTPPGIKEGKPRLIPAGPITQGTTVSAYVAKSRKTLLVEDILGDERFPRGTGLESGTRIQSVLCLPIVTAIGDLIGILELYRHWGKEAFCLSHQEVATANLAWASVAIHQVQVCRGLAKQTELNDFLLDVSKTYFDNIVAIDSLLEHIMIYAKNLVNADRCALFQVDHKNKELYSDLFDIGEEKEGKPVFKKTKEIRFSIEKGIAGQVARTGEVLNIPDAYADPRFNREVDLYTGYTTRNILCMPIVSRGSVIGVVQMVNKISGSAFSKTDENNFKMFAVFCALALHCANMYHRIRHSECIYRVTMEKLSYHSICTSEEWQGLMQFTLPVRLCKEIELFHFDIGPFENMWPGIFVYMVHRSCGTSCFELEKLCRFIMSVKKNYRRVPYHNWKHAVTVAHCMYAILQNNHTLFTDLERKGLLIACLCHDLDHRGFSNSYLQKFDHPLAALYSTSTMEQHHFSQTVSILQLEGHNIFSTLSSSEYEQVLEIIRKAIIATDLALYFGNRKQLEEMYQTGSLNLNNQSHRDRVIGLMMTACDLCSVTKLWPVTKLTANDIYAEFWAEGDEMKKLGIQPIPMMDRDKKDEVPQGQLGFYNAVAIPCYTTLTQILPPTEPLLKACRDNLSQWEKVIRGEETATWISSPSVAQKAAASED

For orientation: IC50 means the concentration that gives 50% inhibition. Turning to `C(=C\c1nc2c(N3CCOCC3)ccnn2c1-c1cccc(-c2nnn[nH]2)c1)/c1ccc2ccccc2n1` [Cpd 105, (E)-4-(3-(3-(1H-Tetrazol-5-yl)phenyl)-2-(2-(quinolin-2-yl)vinyl)imidazo[1,2-b]pyridazin-8-yl)morpholine trifluoroacetic acid salt], the figures for the half-inhibitory concentration (IC50) in test [1] and in test [2] were 5 nM and 4 nM, respectively.

For the compound `O=C(O)CNC(=O)c1ccc(-c2c(CCc3ccc4ccccc4n3)nc3c(N4CCOCC4)ccnn23)cc1` [Cpd 68, 2-(4-(8-Morpholino-2-(2-(quinolin-2-yl)ethyl)imidazo[1,2-b]pyridazin-3-yl)benzamido)acetic acid trifluoroacetic acid salt], the IC50 is 6 nM in test [1] and 5 nM in test [2].

Consider `O=C(O)c1ccc2ccc(/C=C/c3cn4nc(Cl)cc(N5CCOCC5)c4n3)nc2c1` [Cpd 94, 2-[(E)-2-(6-Chloro-8-morpholin-4-ylimidazo[1,2-b]pyridazin-2-yl)ethenyl]quinoline-7-carboxylic acid], for which the IC50 in test [1] came out at 82 nM; in test [2], 53 nM.

`CS(=O)(=O)NC(=O)C1CCN(c2c(/C=C/c3ccc4ccccc4n3)nc3c(N4CCOCC4)ccnn23)CC1` [compound 153, (E)-N-(Methylsulfonyl)-1-(8-morpholino-2-(2-(quinolin-2-yl)vinyl)imidazo[1,2-b]pyridazin-3-yl)piperidine-4-carboxamide]: the IC50 in test [1] is 4 nM; in test [2], 3 nM.

Consider `O=C(O)c1ccc(-c2c(/C=C/c3ccc4ccccc4n3)nc3c(N4CCOCC4)ccnn23)cn1` [compound 92, (E)-5-(8-Morpholino-2-(2-(quinolin-2-yl)vinyl)imidazo[1,2-b]pyridazin-3-yl)picolinic acid], for which the figures for the IC50 in test [1] and in test [2] were 5 nM and 4 nM, respectively.

For the compound `C(=C\c1nc2c(N3CCOCC3)ccnn2c1-c1ccc(-c2nnn[nH]2)nc1)/c1ccc2ccccc2n1` [Cpd 19, 2-[(E)-2-{8-Morpholin-4-yl-3-[6-(1H-tetrazol-5-yl)pyridin-3-yl]imidazo[1,2-b]pyridazin-2-yl}ethenyl]quinoline], the half-maximal inhibitory concentration (IC50) turned out to be 3 nM in test [1] and 2 nM in test [2].

In the case of `c1ccc2nc(CCc3nc4c(N5CCOCC5)ccnn4c3-c3ccc(-c4nnn[nH]4)nc3)ccc2c1` [Cpd 31, 4-(3-(6-(1H-Tetrazol-5-yl)pyridin-3-yl)-2-(2-(quinolin-2-yl)ethyl)imidazo[1,2-b]pyridazin-8-yl)morpholine trifluoroacetic acid salt], the IC50 in test [1] is less than 1 nM; in test [2], 1 nM.

On to `CS(=O)(=O)NC(=O)CCc1ccc(-c2c(/C=C/c3ccc4ccccc4n3)nc3c(N4CCOCC4)ccnn23)cc1` [Cpd 132, (E)-N-(Methylsulfonyl)-3-(4-(8-morpholino-2-(2-(quinolin-2-yl)vinyl)imidazo[1,2-b]pyridazin-3-yl)phenyl)propanamide trifluoroacetic acid salt], for which the IC50 in test [1] turned out to be 15 nM; in test [2], 11 nM.

As for `O=C(O)CCNC(=O)c1ccc(-c2c(C#Cc3ccc4ccccc4n3)nc3c(N4CCOCC4)ccnn23)cc1` [compound 82, 3-(4-(8-Morpholino-2-(quinolin-2-ylethynyl)imidazo[1,2-b]pyridazin-3-yl)benzamido)propanoic acid], the 50% inhibitory concentration (IC50) is 2 nM in test [1] and less than 1 nM in test [2].

For `O=C(O)CCNc1ccc(-c2c(/C=C/c3ccc4ccccc4n3)nc3c(N4CCOCC4)ccnn23)cc1` [Cpd 93, (E)-3-(4-(8-Morpholino-2-(2-(quinolin-2-yl)vinyl)imidazo[1,2-b]pyridazin-3-yl)phenylamino)propanoic acid trifluoroacetic acid salt], the concentration for half-maximal inhibition (IC50) in test [1] and in test [2] was 3 nM in each case.

In the case of `O=c1ncn(-c2ccc(-c3c(/C=C/c4ccc5ccccc5n4)nc4c(N5CCOCC5)ccnn34)cn2)[nH]1` [Cpd 56, (E)-1-(5-(8-Morpholino-2-(2-(quinolin-2-yl)vinyl)imidazo[1,2-b]pyridazin-3-yl)pyridin-2-yl)-1,2-dihydro-1,2,4-triazol-3-one trifluoroacetic acid salt], the IC50 in test [1] worked out at 7 nM; in test [2], 4 nM.

With `CS(=O)(=O)NC(=O)c1cccc2nc(/C=C/c3nc4c(N5CCOCC5)ccnn4c3-c3ccccn3)ccc12` [Cpd 145, (E)-N-(Methylsulfonyl)-2-(2-(8-morpholino-3-(pyridin-2-yl)imidazo[1,2-b]pyridazin-2-yl)vinyl)quinoline-5-carboxamide], the IC50 in test [1] was 2 nM; in test [2] it was 4 nM.

For `CC(C)[C@H](Nc1ccc(-c2c(/C=C/c3ccc4ccccc4n3)nc3c(N4CCOCC4)ccnn23)cc1)C(=O)O` [Cpd 99, (S,E)-3-Methyl-2-(4-(8-morpholino-2-(2-(quinolin-2-yl)vinyl)imidazo[1,2-b]pyridazin-3-yl)phenylamino)butanoic acid trifluoroacetic acid salt], the values for the concentration for half-maximal inhibition (IC50) in test [1] and in test [2] were 12 nM and 10 nM, respectively.

For `O=c1[nH]c(-c2ccc(-c3c(COc4ccc5ccccc5n4)nc4c(N5CCOCC5)ccnn34)cn2)no1` [Cpd 35, 3-(5-(8-Morpholino-2-((quinolin-2-yloxy)methyl)imidazo[1,2-b]pyridazin-3-yl)pyridin-2-yl)-1,2,4-oxadiazol-5(4H)-one], the IC50 amounted to 7 nM in test [1] and 5 nM in test [2].

On to `O=C(O)CN1CCC(c2c(/C=C/c3ccc4ccccc4n3)nc3c(N4CCOCC4)ccnn23)CC1` [Cpd 29, (E)-2-(4-(8-Morpholino-2-(2-(quinolin-2-yl)vinyl)imidazo[1,2-b]pyridazin-3-yl)piperidin-1-yl)acetic acid trifluoroacetic acid salt], for which the IC50 in test [1] is 49 nM; in test [2] it was 39 nM.

`O=c1[nH]c(-c2ccc(-c3c(CCc4ccc5ccccc5n4)nc4c(N5CCOCC5)ccnn34)cn2)no1` [Cpd 37, 3-(5-(8-Morpholino-2-(2-(quinolin-2-yl)ethyl)imidazo[1,2-b]pyridazin-3-yl)pyridin-2-yl)-1,2,4-oxadiazol-5(4H)-one]: the values for the IC50 in test [1] and in test [2] were less than 1 nM and 1 nM, respectively.

Turning to `CN(C)c1ccc(-c2c(COc3ccc4ccccc4n3)nc3c(N4CCOCC4)ccnn23)cn1` [Cpd 5, N,N-dimethyl-5-(8-morpholino-2-((quinolin-2-yloxy)methyl)imidazo[1,2-b]pyridazin-3-yl)pyridin-2-amine methane sulfonic acid], the half-inhibitory concentration (IC50) in test [1] worked out at 457 nM; in test [2], 126 nM.

For `C(=C\c1nc2c(N3CCOCC3)ccnn2c1-c1ccc(-c2nnn[nH]2)cc1)/c1ccc2ccccc2n1` [compound 176, (E)-4-(3-(4-(1H-Tetrazol-5-yl)phenyl)-2-(2-(quinolin-2-yl)vinyl)imidazo[1,2-b]pyridazin-8-yl)morpholine], the half-inhibitory concentration (IC50) in test [1] and in test [2] was 6 nM throughout.

As for `O=C(O)c1cc2ccccc2nc1/C=C/c1cn2nc(Cl)cc(N3CCOCC3)c2n1` [Cpd 143, 2-[(E)-2-(6-Chloro-8-morpholin-4-ylimidazo[1,2-b]pyridazin-2-yl)ethenyl]quinoline-3-carboxylic acid], the IC50 in test [1] is less than 1 nM; in test [2], 1 nM.

Take `O=C(O)c1ccc(Nc2c(/C=C/c3ccc4ccccc4n3)nc3c(N4CCOCC4)ccnn23)c(F)c1` [Cpd 139, (E)-3-Fluoro-4-((8-morpholino-2-(2-(quinolin-2-yl)vinyl)imidazo[1,2-b]pyridazin-3-yl)amino)benzoic acid]: the values for the half-maximal inhibitory concentration (IC50) in test [1] and in test [2] were 2 nM and 1 nM, respectively.
